Measurements as given in patent US4176184A, “Imidazoisoquinoline-diones and salts thereof” (Boehringer Ingelheim GmbH, priority 1977, dated 1979).
Where a name gives a salt, the structure may show the parent alone. Read-outs that look alike come from different tables or passages of the source.

Columns and labels:
[1] = test system: arterial blood pressure and dp/dt max. (left ventricle); assay: Cardiotonic and blood pressure effects in anesthetized cats; format: in vivo, cat; conditions: 2 mg/kg intravenously; for Change in blood pressure (first value of the pair printed with a slash): first of two values; for Change in blood pressure (second value of the pair printed with a slash): second of two values; for change in vivo at 2 mg/kg: Felis catus, iv, dp/dt max., index of contractility, read-out: Increase in dp/dt
Experimental: 1. Cardiotonic and blood pressure effects
Cats of both sexes with a body weight of 2 to 4 kg were anesthetized by intraperitoneal injection of 30 mgm/kg of sodium pentobarbital. The arterial blood pressure was measured by a Statham pressure transducer (P23 Dc) from the aorta abdominalis via a PVA-Catheter, which was inserted through the right arteria femoralis. The ventricle pressure was measured by a cathetertip manometer (type MILLAR PC-350), which was introduced into the left ventricle via the right arteria carotis. The indices of contractility dp/dt max. were obtained by a differentiating amplifier. The arterial blood pressure and dp/dt max. were continuously recorded by direct-writer. The test compounds were injected intravenously at 2 mg/kg.

Acute toxicity in mice = conditions: mouse, in vivo, dose at which 50% of the animals died
[2] = test system: isolated electrically stimulated left auricle of the guinea pig; assay: Effect on the effective refractory period of the isolated electrically stimulated left auricle of the guinea pig; conditions: Cavia porcellus; Tyrode's solution, 37° C.; cumulative dosing; graphically determined from dose response curves; read-out: EC50 (concentration which reduces the maximum stimulation frequency by 50%)
Experimental: 2. Effect on the effective refractory period of the isolated electrically stimulated left auricle of the guinea pig
Guinea pigs of both sexes were killed by a blow on the neck. After opening the thorax, the heart was quickly removed and transferred into a Tyrode's solution (37° C.). The auricles were separated from the ventricles along the Annulus fibrosus, and only the left auricles were used. Electrical stimulation was performed by a Grass stimulator, S4G, with square wave impulses of 1 millisecond duration and a stimulation voltage of 12 V. The auricles were suspended in Tyrode's solution at 37° C. containing 136.8 mVal NaCl, 2.68 mVal KCL, 0.2625 mVal MgCl2, 0.417 mVal NaH2 PO4, 11.9 mVal NaHCO3, 1.8 mVal CaCl, and 3 gm of glucose perliter. The solution was continuously aerated with O2 /CO2 (98%/2%). The isometric contractions were measured with a force displacement transducer and recorded on a Grass polygraph (P5). The number of the contractions was counted out and compared with the frequency indicated at the stimulator.
The maximum stimulation frequency was determined by increasing the stimulation rate every 10 seconds by 1 Hz. The maximum stimulation frequency was measured in preliminary tests by determining the average value. During the intervals of 5 minutes each between the measurements, the stimulation rate was 0.5 Hz.
After the determination of the average value the test compound was added to the Tyrode's solution and the stimulation rate was maintained at 0.5 Hz. During the first 5 minutes the inotropic effect of the compound was observed. Measurements were performed every 5 and 10 minutes after addition of the test compound. The average value resulting from the two tests (value at 5 minutes and 10 minutes, respectively) was taken as the maximum stimulation frequency after addition of the test compound. At first small doses were given, and after determination of the maximum stimulation frequency the dose was increased cumulatively and the maximum stimulation frequency for that dose was measured.
The maximum stimulation frequency is measured by increasing the stimulation rate. When the interval between two stimuli is shortened, a stimulation rate is reached at which every second stimulation falls into the refractory period of the foregoing contraction and will not be answered with a contraction. So, the maximum stimulation frequency is a measure of the effective refractory period. Compounds which reduce the maximum stimulation frequency, prolong the refractory period.
From the dose response curves the concentrations which reduce the maximum stimulation frequency by 50%, were graphically determined: […]

[3] = test system: chloroform-induced ventricular fibrillation; assay: Antiarrhythmic effect against chloroform-induced ventricular fibrillation in mice; format: in vivo; conditions: Mus musculus, 1 min, male mice, ventricular fibrillation prevented in 50% of animals
Experimental: 3. Antiarrhythmic effect against chloroform-induced ventricular fibrillation in mice
On placing a mouse into a chloroform-saturated atmosphere, the animal becomes anesthetized after 40 sec., the spontaneous respiration stops, and after 20 sec. more, gasping respiration sets in.
Immediately after the gasping respiration has ceased, the mouse is taken out of the chloroform atmosphere, the thorax is opened, and the heart is quickly exposed to allow inspection of the heart movement. For 1 minute after opening the thorax, spontaneous ventricular fibrillation occurs in nearly all the animals or can be induced by touching the heart with tweezers.
Pre-treatment with antiarrhythmic compounds reduces the number of animals which show fibrillation in a dose-dependent way. The dose which reduces the number of animals having fibrillations by 50% (ED50) is calculated by means of dose-response curves and the standard deviation is determined [MILLER, L. C. and TAINTER, M. L., Proc. Soc. Exp. Biol. Med. 57, 261 (1944)].
The tests were performed on male mice, body weight 20-25 gm. Each dose was tested on 10 animals.
The dose was determined, at which after i.v. and p.o. administration one minute before starting the test, the ventricular fibrillation was prevented in 50% of the animals.

[4] = po, read-out: Toxicity (LD50) p.o.
[5] = iv, i.v. one minute before test, read-out: ED50 i.v.
[6] = po, p.o. one minute before test, read-out: ED50 p.o.

Row | EC50 [2] [µg/mL] | SMILES | Duration [1] [min] | Change in blood pressure (first value of the pair printed with a slash) [1] [mm Hg] | Change in blood pressure (second value of the pair printed with a slash) [1] [mm Hg] | change in vivo at 2 mg/kg [1] [%] | LD50 (Acute toxicity in mice; [4]) [mg/kg] | ED50 [3, 5] [mg/kg] | ED50 [3, 6] [mg/kg] | LD50 (Acute toxicity in mice; ip, read-out: Toxicity (LD50) i.p.) [mg/kg]
1 |  | COc1ccc(-c2nc3ccc4c(c3[nH]2)C(=O)NC(=O)C4(C)C)c(OC)c1 [A, 7,7-Dimethyl-2-(2,4-dimethoxy-phenyl)-5H,7H-imidazo[4,5-h]isoquinoline-4,6-dione hydrochloride] | > 24 | -49 | -48 |  |  |  |  | 
2 |  | COc1cc(S(C)(=O)=O)ccc1-c1nc2ccc3c(c2[nH]1)C(=O)NC(=O)C3(C)C [B, 7,7-Dimethyl-2-(2-methoxy-4-methylsulfonyl-phenyl)-5H,7H-imidazo[4,5-h]isoquinoline-4,6-dione] | > 56 | -52 | -80 |  |  |  |  | 
3 |  | CC1(C)C(=O)NC(=O)c2c1ccc1[nH]c(CCc3ccccc3)nc21 [C] | > 20 | -40 | -50 |  |  |  |  | 
4 |  | COc1ccccc1-c1nc2ccc3c(c2[nH]1)C(=O)NC(=O)C3(C)C [Compound E, 7,7-Dimethyl-2-(2-methoxy-phenyl)-5H,7H-imidazo[4,5-h]isoquinoline-4,6-dione hydrochloride] | 12 | -46 | -63 |  |  |  |  | 
5 |  | CC1(C)C(=O)NC(=O)c2c1ccc1nc(Cc3ccccc3)[nH]c21 [D, 7,7-Dimethyl-2-benzyl-5H,7H-imidazo[4,5-h]isoquinoline-4,6-dione] | > 57 | -67 | -63 | 110 | > 300 |  |  | 
6 |  | CC1(C)C(=O)NC(=O)c2c1ccc1nc(C3CCCCC3)[nH]c21 [F] | > 42 | -23 | -40 |  | > 300 |  |  | 
7 |  | CC1(C)C(=O)NC(=O)c2c1ccc1nc(-c3ccc(Cl)cc3)[nH]c21 [G, 7,7-Dimethyl-2-(4-chloro-phenyl)-5H,7H-imidazo[4,5-h]isoquinoline-4,6-dione hydrochloride] | 9 | -40 | -30 |  |  |  |  | 
8 |  | CSc1ccc(-c2nc3ccc4c(c3[nH]2)C(=O)NC(=O)C4(C)C)cc1 [H, 7,7-Dimethyl-2-(4-methylmercapto-phenyl)-5H,7H-imidazo[4,5-h]isoquinoline-4,6-dione] | > 12 | -45 | -45 |  |  |  |  | 
9 |  | COc1ccc(-c2nc3ccc4c(c3[nH]2)C(=O)NC(=O)C4(C)C)cc1 [I, 7,7-Dimethyl-2-(4-methoxy-phenyl)-5H,7H-imidazo[4,5-h]isoquinoline-4,6-dione hydrochloride] | > 19 | -33 | -46 |  |  |  |  | 
10 |  | CC1(C)C(=O)NC(=O)c2c1ccc1nc(-c3ccc(O)cc3)[nH]c21 [J, 7,7-Dimethyl-2-(4-hydroxy-phenyl)-5H,7H-imidazo[4,5-h]isoquinoline-4,6-dione hydrochloride] | > 29 | -47 | -58 |  |  |  |  | 
11 |  | COc1ccc(S(C)(=O)=O)cc1-c1nc2ccc3c(c2[nH]1)C(=O)NC(=O)C3(C)C [K, 7,7-Dimethyl-2-(2-methoxy-5-methylsulfonyl-phenyl)-5H,7H-imidazo[4,5-h]isoquinoline-4,6-dione] | > 107 | -70 | -67 | 157 | > 300 |  |  | 
12 |  | COc1ccc([S+](C)[O-])cc1-c1nc2ccc3c(c2[nH]1)C(=O)NC(=O)C3(C)C (centres unmarked) [L, 7,7-Dimethyl-2-(2-methoxy-5-methylsulfinyl-phenyl)-5H,7H-imidazo[4,6-h]isoquinoline-4,6-dione hydrochloride] | > 70 | -42 | -53 |  |  |  |  | 
13 |  | CC1(C)C(=O)NC(=O)c2c1ccc1nc(C3CC3)[nH]c21 [M, hydrochloride] | > 55 | -41 | -49 | 108 |  |  |  | 
14 | 1.8 | CCN(CC)CCN1C(=O)c2c(ccc3nc(-c4ccccc4)[nH]c23)C(C)(C)C1=O [N, 7,7-Dimethyl-2-phenyl-5-(2-diethylamino-ethyl)-5H,7H-imidazo[4,5-h]isoquinoline-4,6-dione dihydrochloride] |  |  |  |  |  | 2.4 | 21.2 | 
15 | 6.7 | CC1(C)C(=O)N(CCCN2CCCCC2)C(=O)c2c1ccc1nc(-c3ccccc3)[nH]c21 [P, 7,7-Dimethyl-2-phenyl-5-(3-piperidino-propyl)-5H,7H-imidazo[4,5-h]isoquinoline-4,6-dione dihydrochloride] |  |  |  |  |  | 10.5 | 130 | 
16 | 4.8 | CN(C)CCN1C(=O)c2c(ccc3nc(-c4ccccc4)[nH]c23)C(C)(C)C1=O [Q, 7,7-Dimethyl-2-phenyl-5-(2-dimethylamino-ethyl)-5H,7H-imidazo[4,5-h]isoquinoline-4,6-dione-dihydrochloride] |  |  |  |  |  | 6.1 | 23.5 | 

Row | SMILES | EC50 [2] [µg/mL] | Duration [1] [min] | Change in blood pressure (first value of the pair printed with a slash) [1] [mm Hg] | Change in blood pressure (second value of the pair printed with a slash) [1] [mm Hg] | change in vivo at 2 mg/kg [1] [%] | LD50 (Acute toxicity in mice; [4]) [mg/kg] | ED50 [3, 5] [mg/kg] | ED50 [3, 6] [mg/kg] | LD50 (Acute toxicity in mice; ip, read-out: Toxicity (LD50) i.p.) [mg/kg]
17 | CCN(CC)CCCN1C(=O)c2c(ccc3nc(-c4ccccc4)[nH]c23)C(C)(C)C1=O [O, 7,7-Dimethyl-2-phenyl-5-(3-diethylamino-propyl)-5H,7H-imidazo[4,5-h]isoquinoline-4,6-dione dihydrochloride] | 5 |  |  |  |  | 92 | 6.4 | 29 | 61
